Patent publication US10266497B2 (ABIDE THERAPEUTICS, INC., priority 2017, dated 2019)
pIC50: −log10 of the molar value.

What was measured:
MAGL [1] = target: T1, MAGL (Mus musculus, UniProt O35678); assay: In vitro competitive activity-based protein profiling, MAGL, mouse; conditions: read-out: MAGL % inh. 1 μM (mouse)
T1 sequence (O35678 1-303): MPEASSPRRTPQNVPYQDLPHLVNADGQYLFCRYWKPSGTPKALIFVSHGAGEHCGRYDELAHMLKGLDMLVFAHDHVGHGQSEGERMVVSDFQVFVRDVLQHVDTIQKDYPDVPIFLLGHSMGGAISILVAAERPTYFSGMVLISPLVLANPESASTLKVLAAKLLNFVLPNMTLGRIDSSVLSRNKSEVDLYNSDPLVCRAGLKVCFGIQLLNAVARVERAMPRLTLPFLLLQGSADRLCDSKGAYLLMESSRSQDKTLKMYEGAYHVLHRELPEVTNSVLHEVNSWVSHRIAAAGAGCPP

FAAH [2] = target: T2, FAAH (Mus musculus, UniProt O08914); assay: In vitro competitive activity-based protein profiling, FAAH, mouse; conditions: read-out: FAAH % inh. 1 μM (mouse)
T2 sequence (O08914 1-579): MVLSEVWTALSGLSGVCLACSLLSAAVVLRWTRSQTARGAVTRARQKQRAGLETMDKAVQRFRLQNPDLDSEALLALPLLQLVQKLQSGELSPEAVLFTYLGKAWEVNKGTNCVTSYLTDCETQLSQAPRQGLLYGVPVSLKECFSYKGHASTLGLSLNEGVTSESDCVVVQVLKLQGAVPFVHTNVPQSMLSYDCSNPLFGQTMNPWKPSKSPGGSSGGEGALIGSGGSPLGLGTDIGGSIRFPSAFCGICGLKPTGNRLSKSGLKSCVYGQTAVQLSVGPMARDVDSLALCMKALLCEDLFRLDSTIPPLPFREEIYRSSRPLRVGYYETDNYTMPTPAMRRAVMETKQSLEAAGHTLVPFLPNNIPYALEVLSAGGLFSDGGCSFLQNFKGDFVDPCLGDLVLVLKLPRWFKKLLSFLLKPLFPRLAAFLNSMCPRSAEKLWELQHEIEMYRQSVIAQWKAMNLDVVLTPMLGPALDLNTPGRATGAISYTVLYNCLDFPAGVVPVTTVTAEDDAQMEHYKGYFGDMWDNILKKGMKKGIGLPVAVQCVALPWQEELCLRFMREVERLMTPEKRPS

FAAH [3] = target: T3, FAAH (Homo sapiens, UniProt O00519); assay: In vitro competitive activity-based protein profiling, FAAH, human; conditions: for inhibition at 1 µM: read-out: FAAH % inh. 1 μM (human)
T3 sequence (O00519 1-579): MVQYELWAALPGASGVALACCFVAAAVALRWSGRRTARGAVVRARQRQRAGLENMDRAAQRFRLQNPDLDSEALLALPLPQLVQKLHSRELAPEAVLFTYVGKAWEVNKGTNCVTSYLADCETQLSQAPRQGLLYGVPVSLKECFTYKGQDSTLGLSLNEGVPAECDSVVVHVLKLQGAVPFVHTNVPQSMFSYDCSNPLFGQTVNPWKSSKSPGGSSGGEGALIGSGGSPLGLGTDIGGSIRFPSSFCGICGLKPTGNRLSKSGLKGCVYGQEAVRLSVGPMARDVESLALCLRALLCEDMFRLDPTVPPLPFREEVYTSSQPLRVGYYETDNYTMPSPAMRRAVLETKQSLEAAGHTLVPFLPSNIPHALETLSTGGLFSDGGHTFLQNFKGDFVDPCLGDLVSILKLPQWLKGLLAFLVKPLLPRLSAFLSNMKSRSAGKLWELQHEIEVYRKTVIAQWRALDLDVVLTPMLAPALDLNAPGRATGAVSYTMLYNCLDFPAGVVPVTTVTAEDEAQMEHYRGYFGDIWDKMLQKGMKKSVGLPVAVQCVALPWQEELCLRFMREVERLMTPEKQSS
Description: Biological Evaluation In Vitro Competitive Activity-Based Protein Profiling.
Proteomes (mouse brain membrane fraction for mouse assays; human prefrontal cortex membrane fractions for human assays) (50 mL, 1.0 mg/mL total protein concentration) were preincubated with varying concentrations of inhibitors at 37° C. After 30 min, FP-Rh (1.0 mL, 50 mM in DMSO) was added and the mixture was incubated for another 30 min at 37° C. Reactions were quenched with SDS loading buffer (15 μL—4λ) and run on SDS-PAGE.

MAGL [4] = target: T4, MAGL (Homo sapiens, UniProt Q99685); assay: In vitro competitive activity-based protein profiling, MAGL, human; conditions: read-out: MAGL % inh. 1 μM (human)
T4 sequence (Q99685 1-303): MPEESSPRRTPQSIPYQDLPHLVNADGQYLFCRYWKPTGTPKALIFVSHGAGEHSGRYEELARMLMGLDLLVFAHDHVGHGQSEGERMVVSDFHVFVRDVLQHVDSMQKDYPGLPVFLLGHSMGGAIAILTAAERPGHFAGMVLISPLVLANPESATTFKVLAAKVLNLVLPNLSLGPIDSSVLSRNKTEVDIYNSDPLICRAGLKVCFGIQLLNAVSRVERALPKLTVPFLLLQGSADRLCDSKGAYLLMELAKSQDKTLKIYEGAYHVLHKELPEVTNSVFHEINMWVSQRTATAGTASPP

Row | inhibition at 1 µM (MAGL [1]) [%] | inhibition at 1 µM (FAAH [2]) [%] | inhibition at 1 µM (FAAH [3]) [%] | inhibition at 1 µM (MAGL [4]) [%] | pIC50 (FAAH [3]) | SMILES
1 | > 75 | 25 to 50 | – | – | – | O=C(O)c1ccn(C(=O)N2CCN(Cc3cccc(Oc4ccccc4)c3)CC2)n1 [Example 2, 1-(4-(3-phenoxybenzyl)piperazine-1-carbonyl)-1H-pyrazole-3-carboxylic Acid]
2 | > 75 | 0 to 25 | – | – | – | O=C(O)c1ccn(C(=O)N2CCC(Oc3cccc(Cl)c3N3CCCC3)CC2)n1 [Example 13, 1-(4-(3-Chloro-2-(pyrrolidin-1-yl)phenoxy)piperidine-1-carbonyl)-1H-pyrazole-3-carboxylic Acid]
3 | – | 25 to 50 | > 75 | – | – | O=C(O)c1ccn(C(=O)N2C[C@H]3C[C@H](OCc4ccccc4Cl)C[C@H]3C2)n1 [Example 15, 1-(trans-5-((2-Chlorobenzyl)oxy)octahydrocyclopenta[c]pyrrole-2-carbonyl)-1H-pyrazole-3-carboxylic Acid]
4 | > 75 | > 75 | – | – | – | NC(=O)c1ccn(C(=O)N2CC3CN(Cc4ccc(N5CCOCC5)cc4C(F)(F)F)CC3C2)n1 (stereo not drawn) [Example 17, 1-(5-(4-Morpholino-2-(trifluoromethyl)benzyl)octahydropyrrolo[3,4-c]pyrrole-2-carbonyl)-1H-pyrazole-3-carboxamide]
5 | – | 0 to 25 | 0 to 25 | – | – | C[C@@H]1CC[C@H](C)N1c1cc(C(F)(F)F)ccc1CN1CCCC12CCN(C(=O)n1ccc(C(=O)O)n1)CC2 [Example 80, 1-(1-(2-((2R,5S)-2,5-dimethylpyrrolidin-1-yl)-4-(trifluoromethyl)benzyl)-1,8-diazaspiro[4.5]decane-8-carbonyl)-1H-pyrazole-3-carboxylic acid]
6 | > 75 | 25 to 50 | – | – | – | O=C(O)c1ccn(C(=O)N2CC3CN(Cc4ccc(C(F)(F)F)cc4)CC3C2)n1 (stereo not drawn) [Example 96, 1-(5-(4-(trifluoromethyl)benzyl)octahydro-pyrrolo[3,4-c]pyrrole-2-carbonyl)-1H-pyrazole-3-carboxylic acid]
7 | – | – | > 75 | > 75 | 6.00 to 7.00 | O=C(O)c1ccn(C(=O)N2CCC3(CCN(Cc4ccc(-c5ccccc5)cc4C(F)(F)F)C3)CC2)n1 [Example 170, 1-(2-((3-(trifluoromethyl)-[1,1′-biphenyl]-4-yl)methyl)-2,8-diazaspiro[4.5]decane-8-carbonyl)-1H-pyrazole-3-carboxylic acid]
8 | – | – | 0 to 25 | 25 to 50 | – | O=C(O)c1ccn(C(=O)N2CCN(Cc3cccc(Oc4ccnnc4)c3)CC2)n1 [Example 177, 1-(4-(3-(pyridazin-4-yloxy)benzyl)pipera-zine-1-carbonyl)-1H-pyrazole-3-carboxylic acid]
9 | – | – | > 75 | > 75 | – | NC(=O)c1ccn(C(=O)N2CCC3(CCN(Cc4cc(F)cc(Cl)c4)C3)CC2)n1 [Example 178, 1-(2-(3-chloro-5-fluorobenzyl)-2,8-diazaspiro[4.5]decane-8-carbonyl)-1H-pyrazole-3-carboxamide]
10 | – | – | 50 to 75 | > 75 | – | NC(=O)c1ccn(C(=O)N2CCN(Cc3cccc(-c4cncnc4)c3)CC2)n1 [Example 179, 1-(4-(3-(pyrimidin-5-yl)benzyl)piperazine-1-carbonyl)-1H-pyrazole-3-carboxamide]
11 | – | – | 0 to 25 | > 75 | – | O=C(O)c1ccn(C(=O)N2CCC3(CCCN3Cc3ccc(Cl)cc3N3CCCC3)CC2)n1 [Example 180, 1-(1-(4-chloro-2-(pyrrolidin-1-yl)benzyl)-1,8-diazaspiro[4.5]decane-8-carbonyl)-1H-pyrazole-3-carboxylic acid]
12 | 25 to 50 | 25 to 50 | – | – | – | O=C(O)c1ccn(C(=O)N2CC3CN(Cc4ccc(Cl)cc4)CC3C2)n1 (stereo not drawn) [Example 183, 1-(5-(4-chlorobenzyl)octa-hydropyrrolo[3,4-c]pyrrole-2-carbonyl)-1H-pyrazole-3-carboxylic acid]
13 | 0 to 25 | 25 to 50 | – | – | – | CN(Cc1ccccc1Cl)[C@H]1C[C@@H]2CN(C(=O)n3ccc(C(=O)O)n3)C[C@@H]2C1 [Example 184, 1-(trans-5-((2-chlorobenzyl) (methyl)amino)octa-hydrocyclopenta[c]pyrrole-2-carbonyl)-1H-pyrazole-3-carboxylic]
14 | – | – | > 75 | > 75 | – | NC(=O)c1ccn(C(=O)N2CCC3(CCN(Cc4cc(Cl)cc(C(F)(F)F)c4)C3)CC2)n1 [Example 196, 1-(2-(3-chloro-5-(trifluoromethyl)benzyl)-2,8-diazaspiro[4.5]decane-8-carbonyl)-1H-pyrazole-3-carboxamide]
15 | > 75 | > 75 | – | – | – | NC(=O)c1ccn(C(=O)N2CCN(Cc3cccc(Oc4ccccc4)c3)CC2)n1 [Example 198, 1-(4-(3-phenoxybenzyl)pi-perazine-1-carbonyl)-1H-pyrazole-3-carboxamide]
16 | > 75 | > 75 | – | – | – | CN(Cc1ccccc1Cl)[C@H]1C[C@@H]2CN(C(=O)n3ccc(C(N)=O)n3)C[C@@H]2C1 [Example 200, 1-(trans-5-((2-chlorobenzyl) (methyl)amino)octa-hydrocyclopenta[c]pyrrole-2-carbonyl)-1H-pyrazole-3-carboxamide]
17 | > 75 | > 75 | – | – | – | NC(=O)c1ccn(C(=O)N2CC3CN(Cc4cc(Cl)cc(C(F)(F)F)c4)CC3C2)n1 (stereo not drawn) [Example 201, 1-(5-(3-chloro-5-(trifluoromethyl)benzyl)octahydro-pyrrolo[3,4-c]pyrrole-2-carbonyl)-1H-pyrazole-3-carboxamide]
18 | > 75 | > 75 | – | – | – | NC(=O)c1ccn(C(=O)N2CC3CN(Cc4cc(Cl)ccc4Cl)CC3C2)n1 (stereo not drawn) [Example 202, 1-(5-(2,5-dichlorobenzyl)octa-hydropyrrolo[3,4-c]pyrrole-2-carbonyl)-1H-pyrazole-3-carboxamide]
19 | > 75 | > 75 | – | – | – | CN(Cc1ccccc1C(F)(F)F)[C@@H]1C[C@@H]2CN(C(=O)n3ccc(C(N)=O)n3)C[C@@H]2C1 [Example 204, 1-(cis-5-(methyl(2-(trifluoromethyl)benzyl)amino)octa-hydrocyclopenta[c]pyrrole-2-carbonyl)-1H-pyrazole-3-carboxamide]
20 | > 75 | > 75 | – | – | – | CN(Cc1ccc(C(F)(F)F)cc1)[C@@H]1C[C@@H]2CN(C(=O)n3ccc(C(N)=O)n3)C[C@@H]2C1 [Example 205, 1-(cis-5-(methyl(4-(trifluoromethyl)benzyl)amino)octa-hydrocyclopenta[c]pyrrole-2-carbonyl)-1H-pyrazole-3-carboxamide]
21 | > 75 | > 75 | – | – | – | CN(Cc1ccccc1Cl)[C@@H]1C[C@@H]2CN(C(=O)n3ccc(C(N)=O)n3)C[C@@H]2C1 [Example 206]
22 | > 75 | > 75 | – | – | – | NC(=O)c1ccn(C(=O)N2CC3CN(Cc4cccc(C(F)(F)F)c4)CC3C2)n1 (stereo not drawn) [Example 208, 1-(5-(3-(trifluoromethyl)benzyl)octahydro-pyrrolo[3,4-c]pyrrole-2-carbonyl)-1H-pyrazole-3-carboxamide]
